Reference: patent publication US20250032573A1, “IMMUNITY-ENHANCING PEPTIDE ANALOGS AND USES THEREOF” (RESEARCH & BUSINESS FOUNDATION SUNGKYUNKWAN UNIVERSITY, priority 2023, published 2025)
Numbered stars: 1 amine (or outer) side, 2 acyl side, 3 side chain; on linkers, the order of the positions; unused ones are H or OH. Square brackets hold non-standard residues; d marks the D form. Peptide text beside a SMILES is read from it. Gly(N-4-hydroxybenzyl) = O=C(O)CNCc1ccc(O)cc1; X1 = CSCCN(CC(=O)[*:2])[*:1]; Nlys = NCCCCNCC(=O)O

Assays:
[1] = system: neutrophils; assay: Superoxide anion (ROS) production in neutrophils; assay type: cell-based
Protocol: The effect of superoxide anion production in neutrophils by the peptoid-comprising analogs in which a peptoid residue was substituted for K, Y, and M in the structure of WKYMVm was measured.

[2] = system: neutrophils; assay: Degranulation activity of neutrophils (beta-hexosaminidase activity); assay type: cell-based
Protocol: The degranulation activity of neutrophils by the analogs in which each amino acid in the structure of WKYMVm was substituted with a β-amino acid was compared and analyzed by measuring beta-hexosaminidase activity.
The degranulation activity of neutrophils by the peptoid-containing analogs in which a peptoid residue was substituted for K, Y, and M in the structure of WKYMVm was measured.

[3] = FIG. 17
Excerpt: Table printed on a drawing sheet, FIG. 17

[4] = 【FIG 16】
Excerpt: Table printed on a drawing sheet, 【FIG 16】

[5] = system: neutrophils; assay: Neutrophil chemotaxis assay using a Boyden chamber; assay type: cell-based; conditions: for chemotactic migration of neutrophils: from 1 nM or 10 nM to 1 μM
Protocol: To investigate the effect of the WKYMVm peptide analogs on the regulation of immune cell mobility, which a representative function of FPR, a chemotaxis assay was performed using a Boyden chamber.
To measure the in vitro innate immune activity of four peptides comprising one non-natural β^3-amino acid residue, the effect of enhancing neutrophil mobility was measured.

[6] = Degradation half-life in human liver S9 fraction (HPLC); assay type: in vitro ADME
Protocol: To measure the ex vivo stability of the eight analogs comprising a β^3-amino acid residue, the degradation half-life of each analog was measured in a human liver S9 fraction. The degradation half-life was measured by culturing the peptide and serum together at 37° C. and measuring the degree to which the compound was reduced using HPLC at each hour.
The ex vivo stability of the analogs to which a peptoid residue was introduced was measured using the same method as the stability measurement method for the analogs comprising a β-amino acid residue. […] On the other hand, it was confirmed that K peptoid, KY peptoid, and KM peptoid had very high stability so that more than half of them was not degraded even after 24 hours (FIG. 17).

[7] = system: neutrophils
[8] = molecular target: FPR1 (Homo sapiens, UniProt P21462); assay: cell-based; conditions: for increase in intracellular calcium ions through activation of FPR1 (in words): FPR1-expressing RBL-2H3 cell line
Protocol: To investigate whether activation of FPR1, which is important in regulating the activity of innate immune cells, is induced by the WKYMVm peptide analogs, changes in calcium ions were measured in RBL-2H3 cell line, a type of mast cell that artificially expressed FPR1. […] On the other hand, an increase in intracellular calcium ions by WKYMVβm (V is a β-amino acid) through activation of FPR1 was not observed.

[9] = molecular target: FPR2 (Homo sapiens, UniProt P25090); assay: cell-based; conditions: for increase in intracellular calcium ions through activation of FPR2 (in words): FPR2-expressing RBL-2H3 cell line
Protocol: To investigate whether activation of FPR2 is induced by the WKYMVm peptide analogs, changes in calcium ions were measured in RBL-2H3 cell line that artificially expressed FPR2.

[10] = human liver S9 fraction, 37° C.
[11] = human liver S9 fraction, 37° C., 24-hour measurement period, read-out: degradation half-life

Chain of FPR1 (P21462 whole entry): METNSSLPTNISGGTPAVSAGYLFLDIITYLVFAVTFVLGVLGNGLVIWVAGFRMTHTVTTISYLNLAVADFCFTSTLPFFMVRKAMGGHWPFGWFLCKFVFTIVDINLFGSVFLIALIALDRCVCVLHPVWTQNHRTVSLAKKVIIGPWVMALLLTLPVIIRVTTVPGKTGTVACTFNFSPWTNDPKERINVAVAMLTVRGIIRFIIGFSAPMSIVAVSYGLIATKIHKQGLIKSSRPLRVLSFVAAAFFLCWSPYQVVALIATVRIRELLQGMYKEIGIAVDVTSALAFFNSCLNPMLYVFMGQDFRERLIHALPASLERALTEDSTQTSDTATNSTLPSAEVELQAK
Chain of FPR2 (P25090 whole entry): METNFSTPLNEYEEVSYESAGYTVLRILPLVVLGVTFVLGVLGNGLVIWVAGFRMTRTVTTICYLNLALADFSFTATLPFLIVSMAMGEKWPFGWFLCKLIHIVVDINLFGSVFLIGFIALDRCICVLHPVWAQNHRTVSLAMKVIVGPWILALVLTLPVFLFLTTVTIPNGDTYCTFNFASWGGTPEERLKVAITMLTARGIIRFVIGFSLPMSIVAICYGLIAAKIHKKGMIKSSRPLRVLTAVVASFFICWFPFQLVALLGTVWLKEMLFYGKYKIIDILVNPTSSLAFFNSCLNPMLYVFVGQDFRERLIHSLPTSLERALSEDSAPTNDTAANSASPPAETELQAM

CSCC[C@H](NC(=O)CN(Cc1ccc(O)cc1)C(=O)[C@H](CCCCN)NC(=O)[C@@H](N)Cc1c[nH]c2ccccc12)C(=O)N[C@H](C(=O)N[C@H](CCSC)C(N)=O)C(C)C [Y peptoid] (H-WK[Gly(N-4-hydroxybenzyl)]MV[dM]-NH2)
superoxide anion production in neutrophils [1]: effectively promote superoxide anion production | degranulation activity of neutrophils [2]: promoted the degranulation activity of neutrophils to the extent similar to the WKYMVm peptide | Half-Life [3]: 1.1 h

WKβYMVm (βK)
Half-Life [4]: 4.9 h

WKβYMβVm (βKβM)
Half-Life [4]: 8.7 h

WKYβMVm (βY)
Half-Life [4]: 2.1 h

CSCC[C@@H](CC(=O)N[C@H](C(=O)N[C@H](CCSC)C(N)=O)C(C)C)NC(=O)[C@H](Cc1ccc(O)cc1)NC(=O)C[C@H](CCCCN)NC(=O)[C@@H](N)Cc1c[nH]c2ccccc12 [WKβYMβVm]
superoxide anion production in neutrophils [1]: effectively promoted superoxide anion production | degranulation activity of neutrophils [2]: effectively promoted the degranulation activity of neutrophils | effect of enhancing neutrophil mobility, compared with the WKYMVm peptide [5]: maintained similar activity to the WKYMVm peptide | degradation half-life / ex vivo stability compared to the WKYMVm peptide (in words) [6, 10]: improved ex vivo stability | half-life increase compared to the WKYMVm peptide [6, 10]: about 3.3 times | calcium ion-increasing effect in neutrophils [7]: highly induced

WKYMβVm (βM)
Half-Life [4]: 2.4 h

CSCC[C@H](NC(=O)CN(Cc1ccc(O)cc1)C(=O)CN(CCCCN)C(=O)[C@@H](N)Cc1c[nH]c2ccccc12)C(=O)N[C@H](C(=O)N[C@H](CCSC)C(N)=O)C(C)C [KY peptoid] (H-W[Nlys][Gly(N-4-hydroxybenzyl)]MV[dM]-NH2)
Half-Life ([6]; human, s9): > 24 h

CSCC[C@@H](CC(=O)N[C@H](C(=O)N[C@H](CCSC)C(N)=O)C(C)C)NC(=O)[C@H](Cc1ccc(O)cc1)NC(=O)[C@H](CCCCN)NC(=O)[C@@H](N)Cc1c[nH]c2ccccc12 [WKYMβVm]
EC50 [8]: 431 nM | increase in intracellular calcium ions through activation of FPR1 (in words) [8]: increase in calcium ions in a concentration-dependent manner was also observed | EC50 [9]: 14 nM | increase in intracellular calcium ions through activation of FPR2 (in words) [9]: increase in calcium ions in a concentration-dependent manner was observed | superoxide anion production in neutrophils [1]: induce superoxide anion production very effectively to a similar extent as the WKYMVm peptide | degranulation activity of neutrophils [2]: induced the degranulation activity of neutrophils very effectively to a similar extent as the WKYMVm peptide | chemotactic migration of neutrophils [5]: effectively induce chemotactic migration of neutrophils in a concentration-dependent manner | degradation half-life / ex vivo stability compared to the WKYMVm peptide (in words) [6, 10]: half-life similar to that of the WKYMVm peptide | calcium ion-increasing effect in neutrophils [7]: highly induced

CSCC[C@@H](CC(=O)N[C@H](C(=O)N[C@H](CCSC)C(N)=O)C(C)C)NC(=O)C[C@H](Cc1ccc(O)cc1)NC(=O)[C@H](CCCCN)NC(=O)[C@@H](N)Cc1c[nH]c2ccccc12 [WKYβMβVm]
superoxide anion production in neutrophils [1]: effectively promoted superoxide anion production | degranulation activity of neutrophils [2]: effectively promoted the degranulation activity of neutrophils | effect of enhancing neutrophil mobility, compared with the WKYMVm peptide [5]: maintained similar activity to the WKYMVm peptide | degradation half-life / ex vivo stability compared to the WKYMVm peptide (in words) [6, 10]: improved ex vivo stability | calcium ion-increasing effect in neutrophils [7]: highly induced

CSCC[C@H](NC(=O)C[C@H](Cc1ccc(O)cc1)NC(=O)C[C@H](CCCCN)NC(=O)[C@@H](N)Cc1c[nH]c2ccccc12)C(=O)N[C@H](C(=O)N[C@H](CCSC)C(N)=O)C(C)C [WKβYβMVm]
EC50 [8]: 2440 nM | increase in intracellular calcium ions through activation of FPR1 (in words) [8]: activated | EC50 [9]: 77.3 nM | increase in intracellular calcium ions through activation of FPR2 (in words) [9]: activated | superoxide anion production in neutrophils [1]: effectively promoted superoxide anion production | degranulation activity of neutrophils [2]: effectively promoted the degranulation activity of neutrophils | effect of enhancing neutrophil mobility, compared with the WKYMVm peptide [5]: slight decrease in activity | calcium ion-increasing effect in neutrophils [7]: highly induced

CSCC[C@H](NC(=O)[C@H](Cc1ccc(O)cc1)NC(=O)CN(CCCCN)C(=O)[C@@H](N)Cc1c[nH]c2ccccc12)C(=O)N[C@H](C(=O)N[C@H](CCSC)C(N)=O)C(C)C [K peptoid]
superoxide anion production in neutrophils [1]: effectively promote superoxide anion production | degranulation activity of neutrophils [2]: promoted the degranulation activity of neutrophils to the extent similar to the WKYMVm peptide | Half-Life [6, 11]: > 24 h

CSCC[C@H](NC(=O)C[C@H](Cc1ccc(O)cc1)NC(=O)[C@H](CCCCN)NC(=O)[C@@H](N)Cc1c[nH]c2ccccc12)C(=O)N[C@H](C(=O)N[C@H](CCSC)C(N)=O)C(C)C [WKYβMVm]
EC50 [8]: 754 nM | increase in intracellular calcium ions through activation of FPR1 (in words) [8]: increase in calcium ions in a concentration-dependent manner was also observed | EC50 [9]: 13.9 nM | increase in intracellular calcium ions through activation of FPR2 (in words) [9]: increase in calcium ions in a concentration-dependent manner was observed | superoxide anion production in neutrophils [1]: induce superoxide anion production very effectively to a similar extent as the WKYMVm peptide | degranulation activity of neutrophils [2]: induced the degranulation activity of neutrophils very effectively to a similar extent as the WKYMVm peptide | chemotactic migration of neutrophils [5]: effectively induce chemotactic migration of neutrophils in a concentration-dependent manner | degradation half-life / ex vivo stability compared to the WKYMVm peptide (in words) [6, 10]: half-life similar to that of the WKYMVm peptide | calcium ion-increasing effect in neutrophils [7]: highly induced

CSCC[C@@H](NC(=O)[C@@H](NC(=O)CN(CCSC)C(=O)[C@H](Cc1ccc(O)cc1)NC(=O)CN(CCCCN)C(=O)[C@@H](N)Cc1c[nH]c2ccccc12)C(C)C)C(N)=O [KM peptoid] (H-W[Nlys]Y[X1]V[dM]-NH2)
Half-Life ([6]; human, s9): > 24 h

CSCC[C@@H](CC(=O)N[C@H](C(=O)N[C@H](CCSC)C(N)=O)C(C)C)NC(=O)C[C@H](Cc1ccc(O)cc1)NC(=O)C[C@H](CCCCN)NC(=O)[C@@H](N)Cc1c[nH]c2ccccc12 [WKβYβMβVm]
superoxide anion production in neutrophils [1]: did not induce superoxide anion production | degranulation activity of neutrophils [2]: did not induce the degranulation activity of neutrophils | Half-Life [6, 11]: > 24 h | calcium ion-increasing effect in neutrophils [7]: highly induced

CSCC[C@H](NC(=O)[C@H](Cc1ccc(O)cc1)NC(=O)C[C@H](CCCCN)NC(=O)[C@@H](N)Cc1c[nH]c2ccccc12)C(=O)N[C@H](C(=O)N[C@H](CCSC)C(N)=O)C(C)C [WKβYMVm]
EC50 [8]: 261 nM | increase in intracellular calcium ions through activation of FPR1 (in words) [8]: increase in intracellular calcium ions was induced | increase in intracellular calcium ions through activation of FPR2 (in words) [9]: increase in calcium ions in a concentration-dependent manner was observed | superoxide anion production in neutrophils [1]: induce superoxide anion production very effectively to a similar extent as the WKYMVm peptide | degranulation activity of neutrophils [2]: induced the degranulation activity of neutrophils very effectively to a similar extent as the WKYMVm peptide | chemotactic migration of neutrophils [5]: effectively induce chemotactic migration of neutrophils in a concentration-dependent manner | half-life increase compared to the WKYMVm peptide [6, 10]: about 1.9 times | calcium ion-increasing effect in neutrophils [7]: highly induced
